IC50 data for 23 compounds are collected here from patent US10676479B2, “Imidazolepyridine compounds and uses thereof” (Novartis AG, priority 2016, dated 2020).

Assay [1] has as its target EED (1-441)-His protein (Homo sapiens (Human), UniProt O75530). Put plainly: EED-H3K27Me3 peptide competition binding assay by AlphaScreen. The following applies: EED Alphascreen binding Qualified assay. Background: In Alpha technology, singlet oxygen from a donor bead excites a nearby acceptor bead.
In assay [2] the target is wild type PRC2 (wtPRC2) complex (Homo sapiens (Human), UniProt O75530). Put plainly: EED LC-MS assay. The following applies: EED LC-MS Qualified assay; read-out: (b) IC50. The assay is classed as biochemical. Here is the method:
EED LC-MS Assay Representative compounds of the present invention were serially and separately diluted 3-fold in DMSO to obtain a total of eight or twelve concentrations. […] A 6 μL solution of 3 μM of the peptide substrate H3K27Me0 (histone H3[21-44]-biotin) in reaction buffer was added to initiate each reaction. […] The data were then fit to a dose response equation using the program Helios to get the IC50 values of the test compound.

The test system of assay [3] is H3K27 methylation in G401 cell. Put plainly: ELISA (H3K27 methylation) assay. The settings on record: Homo sapiens, G-401, ELISA Qualified assay, 48 h, read-out: (c) IC50. The assay is classed as cell-based. The procedure, abridged:
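G401 cells given 3-fold serial dilutions (eight or twelve points, top 20 μM) for 48 h. Lysate ELISA for H3K27 methylation normalized to H3 signal, % inhibition versus DMSO, IC50 from dose-response fit.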
A general note: An ELISA detects its analyte on a solid surface through an enzyme-linked reagent.

EED (1-441)-His protein, sequence (O75530 whole entry): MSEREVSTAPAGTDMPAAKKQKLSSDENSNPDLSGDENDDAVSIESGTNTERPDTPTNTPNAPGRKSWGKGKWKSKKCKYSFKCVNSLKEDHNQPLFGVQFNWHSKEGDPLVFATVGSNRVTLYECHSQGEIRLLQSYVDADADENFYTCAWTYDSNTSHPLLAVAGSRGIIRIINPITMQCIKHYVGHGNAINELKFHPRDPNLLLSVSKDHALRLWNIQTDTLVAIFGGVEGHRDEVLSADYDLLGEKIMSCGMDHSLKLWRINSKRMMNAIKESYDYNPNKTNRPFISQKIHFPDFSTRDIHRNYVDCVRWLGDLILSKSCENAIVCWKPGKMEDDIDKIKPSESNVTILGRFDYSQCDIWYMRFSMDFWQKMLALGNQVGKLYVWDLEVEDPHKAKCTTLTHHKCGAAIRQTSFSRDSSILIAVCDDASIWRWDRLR
wild type PRC2 (wtPRC2) complex, sequence (O75530 whole entry): as above
wild type PRC2 (wtPRC2) complex, sequence (Q15910 whole entry partner): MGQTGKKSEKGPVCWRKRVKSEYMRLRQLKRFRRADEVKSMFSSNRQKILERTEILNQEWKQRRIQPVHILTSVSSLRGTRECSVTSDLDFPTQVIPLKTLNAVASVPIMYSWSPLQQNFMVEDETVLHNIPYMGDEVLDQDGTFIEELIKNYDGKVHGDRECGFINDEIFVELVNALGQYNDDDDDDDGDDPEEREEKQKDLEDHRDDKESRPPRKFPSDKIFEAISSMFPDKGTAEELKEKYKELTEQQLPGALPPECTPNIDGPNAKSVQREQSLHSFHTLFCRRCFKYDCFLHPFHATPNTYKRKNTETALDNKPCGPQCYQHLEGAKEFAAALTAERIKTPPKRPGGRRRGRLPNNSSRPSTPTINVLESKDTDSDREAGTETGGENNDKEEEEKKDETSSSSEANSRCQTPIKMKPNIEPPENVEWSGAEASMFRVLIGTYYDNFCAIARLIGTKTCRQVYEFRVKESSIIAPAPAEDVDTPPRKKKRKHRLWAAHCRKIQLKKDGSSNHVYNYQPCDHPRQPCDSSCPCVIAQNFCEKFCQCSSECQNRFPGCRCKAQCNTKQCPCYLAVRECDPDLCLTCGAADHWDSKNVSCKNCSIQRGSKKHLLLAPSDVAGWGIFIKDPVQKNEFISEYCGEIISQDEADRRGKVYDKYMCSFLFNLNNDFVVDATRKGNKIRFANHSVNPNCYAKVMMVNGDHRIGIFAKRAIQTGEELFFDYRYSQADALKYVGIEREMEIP
wild type PRC2 (wtPRC2) complex, sequence (Q15022 whole entry partner): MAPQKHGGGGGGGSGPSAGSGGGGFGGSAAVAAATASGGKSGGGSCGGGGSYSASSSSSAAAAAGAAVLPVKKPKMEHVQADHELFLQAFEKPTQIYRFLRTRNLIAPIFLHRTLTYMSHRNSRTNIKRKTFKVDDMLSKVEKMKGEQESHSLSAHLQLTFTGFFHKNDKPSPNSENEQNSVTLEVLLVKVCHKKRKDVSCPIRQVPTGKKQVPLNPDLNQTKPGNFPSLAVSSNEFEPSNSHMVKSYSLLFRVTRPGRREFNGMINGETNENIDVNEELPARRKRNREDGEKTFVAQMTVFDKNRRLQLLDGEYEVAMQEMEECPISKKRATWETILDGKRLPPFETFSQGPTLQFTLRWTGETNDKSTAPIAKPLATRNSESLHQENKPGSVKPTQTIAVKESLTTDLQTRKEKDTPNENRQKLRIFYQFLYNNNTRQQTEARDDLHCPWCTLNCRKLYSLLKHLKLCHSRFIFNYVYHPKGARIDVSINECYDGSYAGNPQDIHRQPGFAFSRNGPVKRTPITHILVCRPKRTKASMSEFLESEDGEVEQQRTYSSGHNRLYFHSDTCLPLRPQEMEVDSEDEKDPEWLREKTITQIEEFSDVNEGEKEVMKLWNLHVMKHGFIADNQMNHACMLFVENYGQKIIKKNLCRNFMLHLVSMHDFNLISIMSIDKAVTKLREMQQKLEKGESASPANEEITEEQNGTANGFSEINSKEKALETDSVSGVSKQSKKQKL

What is called IC50 is the point on the concentration scale where inhibition reaches its midpoint. On to `Cn1cncc1-c1cnc(NCc2c(F)ccc3c2CCO3)n2cnc(C#N)c12` [Example 85, 5-(((5-fluoro-2,3-dihydrobenzofuran-4-yl)methyl)amino)-8-(1-methyl-1H-imidazol-5-yl)imidazo[1,5-c]pyrimidine-1-carbonitrile], for which the IC50 came to 4.5 nM in assay [1], 17.2 nM in assay [2] and 2.8 nM in assay [3].

As for `N#Cc1ncn2c(NCc3c(F)ccc4c3CCO4)ncc(-c3ccc(N4CCNCC4)nc3)c12` [Example 86, 5-(((5-fluoro-2,3-dihydrobenzofuran-4-yl)methyl)amino)-8-(6-(piperazin-1-yl)pyridin-3-yl)imidazo[1,5-c]pyrimidine-1-carbonitrile], the values for the IC50 in assay [1], in assay [2] and in assay [3] were 4.5 nM, 17.6 nM and 2.5 nM, respectively.

Consider `CC(=O)N1CCN(c2ccc(-c3cnc(NCc4c(F)ccc5c4CCO5)n4cnc(C#N)c34)cn2)CC1` [Example 87, 8-(6-(4-acetylpiperazin-1-yl)pyridin-3-yl)-5-(((5-fluoro-2,3-dihydrobenzofuran-4-yl)methyl)amino)imidazo[1,5-c]pyrimidine-1-carbonitrile], for which the half-inhibitory concentration (IC50) in assay [1] amounted to 17 nM; in assay [2] it was 29.7 nM; in assay [3] it was 13.4 nM.

Take `Cc1nn(CCO)c(C)c1-c1cnc(NCc2c(F)ccc3c2CCO3)n2cnc(C#N)c12` [Example 88, 5-(((5-fluoro-2,3-dihydrobenzofuran-4-yl)methyl)amino)-8-(1-(2-hydroxyethyl)-3,5-dimethyl-1H-pyrazol-4-yl)imidazo[1,5-c]pyrimidine-1-carbonitrile]: the concentration for half-maximal inhibition (IC50) in assay [1] was determined as 3.4 nM; in assay [2] it was 11.7 nM; in assay [3] it was 13 nM.

Take `COc1cc(CNc2ncc(-c3cccnc3C)c3c(C#N)ncn23)c(F)cc1F` [Example 89, 5-((2,4-difluoro-5-methoxybenzyl)amino)-8-(2-methylpyridin-3-yl)imidazo[1,5-c]pyrimidine-1-carbonitrile]: the 50% inhibitory concentration (IC50) worked out at 29.6 nM in assay [1], 42.5 nM in assay [2] and 195 nM in assay [3].

With `COc1cccc(F)c1CNc1ncc(-c2cccnc2C)c2c(C#N)ncn12` [Example 90, 5-((2-fluoro-6-methoxybenzyl)amino)-8-(2-methylpyridin-3-yl)imidazo[1,5-c]pyrimidine-1-carbonitrile], the half-inhibitory concentration (IC50) is 139 nM in assay [1], 56.8 nM in assay [2] and 337 nM in assay [3].

On to `CCOC(=O)c1ncn2c(NCc3c(F)ccc4c3CCO4)ncc(Br)c12` [Example 91, ethyl 8-bromo-5-(((5-fluoro-2,3-dihydrobenzofuran-4-yl)methyl)amino)imidazo[1,5-c]pyrimidine-1-carboxylate], for which the IC50 in assay [1] is 8.5 nM; in assay [2], 8 nM; in assay [3] it was 32 nM.

In the case of `CCOC(=O)c1ncn2c(NCc3c(F)ccc4c3CCO4)ncc(-c3ccc(S(C)(=O)=O)cc3)c12` [Example 92, ethyl 5-(((5-fluoro-2,3-dihydrobenzofuran-4-yl)methyl)amino)-8-(4-(methylsulfonyl)phenyl)imidazo[1,5-c]pyrimidine-1-carboxylate], the half-maximal inhibitory concentration (IC50) in assay [1] stood at 5.4 nM; in assay [2], 5.9 nM; in assay [3], 0.7 nM.

`CCOC(=O)c1ncn2c(NCc3c(F)ccc4c3CCO4)ncc(-c3ccc(C)nc3C)c12` [Example 93, ethyl 8-(2,6-dimethylpyridin-3-yl)-5-(((5-fluoro-2,3-dihydrobenzofuran-4-yl)methyl)amino)imidazo[1,5-c]pyrimidine-1-carboxylate]: the figures for the IC50 in assay [1], in assay [2] and in assay [3] were 4.9 nM, 5.7 nM and 5.1 nM, respectively.

Consider `CCOC(=O)c1ncn2c(NCc3c(F)ccc4c3CCO4)ncc(-c3cnc(C)nc3C)c12` [Example 94, ethyl 8-(2,4-dimethylpyrimidin-5-yl)-5-(((5-fluoro-2,3-dihydrobenzofuran-4-yl)methyl)amino)imidazo[1,5-c]pyrimidine-1-carboxylate], for which the 50% inhibitory concentration (IC50) worked out at 4.3 nM in assay [1], 5.7 nM in assay [2] and 3.6 nM in assay [3].

As to `CCOC(=O)c1ncn2c(NCc3cc(OC)c(F)cc3F)ncc(-c3cccnc3C)c12` [Example 96, ethyl 5-((2,4-difluoro-5-methoxybenzyl)amino)-8-(2-methylpyridin-3-yl)imidazo[1,5-c]pyrimidine-1-carboxylate], the figures for the concentration for half-maximal inhibition (IC50) in assay [1], in assay [2] and in assay [3] were 15.8 nM, 16.8 nM and 114 nM, respectively.

Consider `CCOC(=O)c1ncn2c(NCc3cc(OC)c(F)cc3F)ncc(-c3ccc(S(=O)(=O)N(C)C)cc3)c12` [Example 97, ethyl 5-((2,4-difluoro-5-methoxybenzyl)amino)-8-(4-(N,N-dimethylsulfamoyl)phenyl)imidazo[1,5-c]pyrimidine-1-carboxylate], for which the 50% inhibitory concentration (IC50) in assay [1] worked out at 19.6 nM; in assay [2], 16.7 nM; in assay [3], 200 nM.

`CCOC(=O)c1ncn2c(NCc3c(F)cccc3OC)ncc(-c3cnc(C)nc3C)c12` [Example 98, ethyl 8-(2,4-dimethylpyrimidin-5-yl)-5-((2-fluoro-6-methoxybenzyl)amino)imidazo[1,5-c]pyrimidine-1-carboxylate]: the half-maximal inhibitory concentration (IC50) came to 24 nM in assay [1], 24.8 nM in assay [2] and 31.6 nM in assay [3].

Turning to `CCOC(=O)c1ncn2c(NCc3c(F)cccc3OC)ncc(-c3cccnc3C)c12` [Example 99, ethyl 5-((2-fluoro-6-methoxybenzyl)amino)-8-(2-methylpyridin-3-yl)imidazo[1,5-c]pyrimidine-1-carboxylate], the IC50 in assay [1] came to 16 nM; in assay [2], 14.6 nM; in assay [3] it was 68.6 nM.

Take `Cc1ncc(-c2cnc(NCc3c(F)ccc4c3CCO4)n3cnc(S(C)(=O)=O)c23)c(C)n1` [Example 101, 8-(2,4-dimethylpyrimidin-5-yl)-N-((5-fluoro-2,3-dihydrobenzofuran-4-yl)methyl)-1-(methylsulfonyl)imidazo[1,5-c]pyrimidin-5-amine]: the IC50 is 3.6 nM in assay [1], 13.3 nM in assay [2] and 9.1 nM in assay [3].

Take `CS(=O)(=O)c1ncn2c(NCc3c(F)ccc4c3CCO4)ncc(-c3cccnc3)c12` [Example 102, N-((5-fluoro-2,3-dihydrobenzofuran-4-yl)methyl)-1-(methylsulfonyl)-8-(pyridin-3-yl)imidazo[1,5-c]pyrimidin-5-amine]: the figures for the half-maximal inhibitory concentration (IC50) in assay [1], in assay [2] and in assay [3] were 6.9 nM, 17 nM and 2.4 nM, respectively.

For the compound `CS(=O)(=O)c1ncn2c(NCc3c(F)ccc4c3CCO4)ncc(Br)c12` [Example 103, 8-bromo-N-((5-fluoro-2,3-dihydrobenzofuran-4-yl)methyl)-1-(methylsulfonyl)imidazo[1,5-c]pyrimidin-5-amine], the figures for the IC50 in assay [1], in assay [2] and in assay [3] were 5 nM, 10 nM and 36.1 nM, respectively.

As for `CCS(=O)(=O)c1ncn2c(NCc3c(F)ccc4c3CCO4)ncc(-c3cnc(C)nc3C)c12` [Example 104, 8-(2,4-dimethylpyrimidin-5-yl)-1-(ethylsulfonyl)-N-((5-fluoro-2,3-dihydrobenzofuran-4-yl)methyl)imidazo[1,5-c]pyrimidin-5-amine], the 50% inhibitory concentration (IC50) came to 3 nM in assay [1], 10.5 nM in assay [2] and 2.1 nM in assay [3].

For `Cc1ncccc1-c1cnc(NCc2c(F)ccc3c2CCO3)n2cnc(C(=O)N(C)C)c12` [Example 105, 5-(((5-fluoro-2,3-dihydrobenzofuran-4-yl)methyl)amino)-N,N-dimethyl-8-(2-methylpyridin-3-yl)imidazo[1,5-c]pyrimidine-1-carboxamide], the IC50 turned out to be 10.8 nM in assay [1], 30.4 nM in assay [2] and 40.1 nM in assay [3].

Regarding `Cc1ncccc1-c1cnc(NCc2c(F)ccc3c2CCO3)n2cnc(C(=O)NCCO)c12` [Example 107, 5-(((5-fluoro-2,3-dihydrobenzofuran-4-yl)methyl)amino)-N-(2-hydroxyethyl)-8-(2-methylpyridin-3-yl)imidazo[1,5-c]pyrimidine-1-carboxamide], the half-inhibitory concentration (IC50) in assay [1] was determined as 7.7 nM; in assay [2], 6.9 nM; in assay [3], 25.6 nM.

Regarding `Cc1ncccc1-c1cnc(NCc2c(F)ccc3c2CCO3)n2cnc(C(=O)NN)c12` [Example 108, 5-(((5-fluoro-2,3-dihydrobenzofuran-4-yl)methyl)amino)-8-(2-methylpyridin-3-yl)imidazo[1,5-c]pyrimidine-1-carbohydrazide], the half-inhibitory concentration (IC50) was found to be 7 nM in assay [1], 13.6 nM in assay [2] and 13.1 nM in assay [3].

For `CS(=O)(=O)c1ccc(-c2cnc(NCc3c(F)ccc4c3CCO4)n3cnc(Cl)c23)cc1` [Example 109, 1-chloro-N-((5-fluoro-2,3-dihydrobenzofuran-4-yl)methyl)-8-(4-(methylsulfonyl)phenyl)imidazo[1,5-c]pyrimidin-5-amine], the IC50 in assay [1] turned out to be 12.2 nM; in assay [2], 15 nM; in assay [3], 99.4 nM.

In the case of `Cc1ncccc1-c1cnc(NCc2c(F)ccc3c2CCO3)n2cnc(-c3ccccc3)c12` [Example 111, N-((5-fluoro-2,3-dihydrobenzofuran-4-yl)methyl)-8-(2-methylpyridin-3-yl)-1-phenylimidazo[1,5-c]pyrimidin-5-amine], the IC50 stood at 7.6 nM in assay [1], 9.6 nM in assay [2] and 23.8 nM in assay [3].
